pEC50, pIC50: −log10 of the molar value. Like-named read-outs stand apart in the source and are kept apart here.
Tests used:
[1] = tested on: HER3-ss+4aa/Gaussia Luciferase; assay: Dox-Induced Her3-ss-Gluc Assay; type: cell-based; conditions: 24 hr Dox induction, 293FRT/TO cells, read-out: 24 hr Dox Inducible Her3(ss + 4)Gluc 293FRT/TO: Mean IC50
Outline: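 Cells were seeded a day ahead, then given compound diluted in DMSO/media with doxycycline to induce expression of the HER3 signal sequence (+4 aa)–Gaussia luciferase fusion. Incubation was at 37° C., 5% CO2, in a stable Flp-In 293 T-REx line.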

[2] = tested on: TNFα-FL/Gaussia Luciferase; assay: Dox Induced TNFα-FL-Gluc Assay; type: cell-based; conditions: for pIC50: 24 hr Dox induction, 293FRT/TO cells, read-out: 24 hr Dox Inducible TNFaFLGluc 293FRT/TO: Mean IC50; for 24 hr Dox Inducible TNFaFLGluc 293FRT/TO: TNF/PD1: ratio of TNFaFLGluc IC50 to PD1ssGluc IC50
Outline: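 Stereoisomer mixtures were tested where stereochemistry is not drawn. Induction used doxycycline added together with compound dilutions in DMSO/media to Flp-In 293 T-REx cells carrying a T-REx-regulated TNFα (aa 1-233)-Gaussia luciferase construct, then incubated at 37 °C, 5% CO2.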

[3] = tested on: PD1-ss+10aa/Gaussia Luciferase; assay: Dox-Induced PD1-ss-Gluc Assay; type: cell-based; conditions: 24 hr Dox induction, 293FRT/TO cells, read-out: 24 hr Dox Inducible PD1ssGluc 293FRT/TO: Mean IC50
Outline: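 Compounds were added in DMSO/media with doxycycline and incubated at 37 °C, 5% CO2, on 293 T-REx cells plated one day earlier. These cells stably express, under tetracycline-regulated control, a Gaussia luciferase fused to the PD1 signal peptide plus 10 residues. Structures drawn without stereochemistry were tested as stereoisomer mixtures.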

[4] = tested on: multiple myeloma cell line NCI-H929; assay: H929 Cell Viability Assay; type: cell-based, human; conditions: Homo sapiens, NCI-H929, 48 h, NCI-H929 cells, Celltiter-Glo
Outline: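 Luminescent ATP detection (CellTiter-Glo) after 48 hours of compound exposure measures viability. Cells were plated in RPMI 1640 containing 10% fetal bovine serum and kept at 37° C under 5% CO2.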

[5] = Liver Microsome Stability Assay (human); conditions: human liver microsomes, with NADPH, 1.0 uM compound
Experimental: (§1) Stability of a compound was assessed in the presence of liver microsomes from various sources—mouse, rat, monkey and human liver microsomes. 1.0 uM compound, 0.4% DMSO in 0.1 M Potassium Phosphate with 1.0 mg/mL liver microsomes, were incubated at 37° C. with or without 1 mM NADPH. The samples were quenched at 0, and 30 minutes.

[6] = Liver Microsome Stability Assay (monkey); conditions: monkey liver microsomes, with NADPH, 1.0 uM compound
Experimental: as §1

[7] = Liver Microsome Stability Assay (mouse); conditions: mouse liver microsomes, with NADPH, 1.0 uM compound
Experimental: as §1

[8] = tested on: IL-2-FL/Gaussia Luciferase; assay: Dox Induced IL2-FL-Gluc Assay; type: cell-based; conditions: for pIC50: 24 hr Dox induction, 293FRT/TO cells, read-out: 24 hr Dox Inducible IL2FLGluc 293FRT/TO: Mean IC50; for 24 hr Dox Inducible IL2FLGluc 293FRT/TO: IL2/PD1: ratio of IL2FLGluc IC50 to PD1ssGluc IC50
Outline: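 Cells are plated one day ahead, then receive compound dilutions in DMSO/media with doxycycline and incubate at 37° C, 5% CO2. They are Flp-In 293 T-REx cells expressing a full-length IL-2 (amino acids 1-153)–Gaussia luciferase fusion under T-REx control.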

[9] = tested on: multiple myeloma cell line U266B1; assay: U266 Cell Viability Assay; type: cell-based, human; conditions: Homo sapiens, U-266, 48 h, U266B1 cells, Celltiter-Glo
Outline: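 Steps: culture in RPMI 1640 plus 10% FBS and 2 mM glutamine; plate and add compound dilutions; incubate 48 hours at 37° C., 5% CO2; add CellTiter-Glo and quantify luciferase signal.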

[10] = Liver Microsome Stability Assay (rat); conditions: rat liver microsomes, with NADPH, 1.0 uM compound
Experimental: as §1

[11] = '<=>' given where both are I.A.

| pIC50 ([1]; mean) | pIC50 ([2]; mean) | pIC50 ([3]; mean) | pEC50 [4] | Liver Microsome Stability (Multiple Species): Human - % Remaining after 30 min w/NADPH [5] [%] | Liver Microsome Stability (Multiple Species): Monkey - % Remaining after 30 min w/NADPH [6] [%] | Liver Microsome Stability (Multiple Species): Mouse - % Remaining after 30 min w/NADPH [7] [%] | pIC50 ([8]; mean) | pEC50 [9] | Liver Microsome Stability (Multiple Species): Rat - % Remaining after 30 min w/NADPH [10] [%] | pIC50 [1] | pIC50 [2] | pIC50 [3] | pIC50 [8] | SMILES | 24 hr Dox Inducible TNFaFLGluc 293FRT/TO: TNF/PD1 [2, 11] | 24 hr Dox Inducible IL2FLGluc 293FRT/TO: IL2/PD1 [8, 11] | 24 hr Dox Inducible TNFaFLGluc 293FRT/TO: TNF/PD1 [2] | 24 hr Dox Inducible IL2FLGluc 293FRT/TO: IL2/PD1 [8] |
| --- | --- | --- | --- | --- | --- | --- | --- | --- | --- | --- | --- | --- | --- | --- | --- | --- | --- | --- |
| 5.89 | 5.22 | 6.68 | 4.62 | 0.67 | 0.57 | 1.82 | 5.75 | < 4.60 | 0.75 |  |  |  |  | O=C(Nc1nc(CCC2CCCCO2)cs1)c1cccn1Cc1ccncc1 (centres unmarked) [Compound E6, 1-(pyridin-4-ylmethyl)-N-(4-(2-(tetrahydro-2H-pyran-2-yl)ethyl)thiazol-2-yl)-1H-pyrrole-2-carboxamide] | 29.1 | 8.6 |  |  |
| < 4.60 | < 4.60 | < 4.60 | < 4.60 | 35.6 | 18.1 | 35.8 | < 4.60 | < 4.60 | 27.8 |  |  |  |  | O=C(Nc1nc([C@H]2CCCN2)cs1)c1cccn1Cc1ccncc1 [Compound E17, (R)-1-(pyridin-4-ylmethyl)-N-(4-(pyrrolidin-2-yl)thiazol-2-yl)-1H-pyrrole-2-carboxamide] |  | 1 |  |  |

Continued, compound first:

| SMILES | pIC50 ([1]; mean) | pIC50 ([2]; mean) | pIC50 ([3]; mean) | pEC50 [4] | Liver Microsome Stability (Multiple Species): Human - % Remaining after 30 min w/NADPH [5] [%] | Liver Microsome Stability (Multiple Species): Monkey - % Remaining after 30 min w/NADPH [6] [%] | Liver Microsome Stability (Multiple Species): Mouse - % Remaining after 30 min w/NADPH [7] [%] | pIC50 ([8]; mean) | pEC50 [9] | Liver Microsome Stability (Multiple Species): Rat - % Remaining after 30 min w/NADPH [10] [%] | pIC50 [1] | pIC50 [2] | pIC50 [3] | pIC50 [8] | 24 hr Dox Inducible TNFaFLGluc 293FRT/TO: TNF/PD1 [2, 11] | 24 hr Dox Inducible IL2FLGluc 293FRT/TO: IL2/PD1 [8, 11] | 24 hr Dox Inducible TNFaFLGluc 293FRT/TO: TNF/PD1 [2] | 24 hr Dox Inducible IL2FLGluc 293FRT/TO: IL2/PD1 [8] |
| --- | --- | --- | --- | --- | --- | --- | --- | --- | --- | --- | --- | --- | --- | --- | --- | --- | --- | --- |
| CNc1ccc(N2CCC[C@@H]2c2csc(NC(=O)c3cccn3Cc3ccncc3)n2)cc1 [Compound A15] |  |  |  | 6.12 | 5.24 | 1.86 | 10.5 |  | 5.13 | 17.7 | 7.14 | 6.06 | 7.47 | 7.01 |  |  | 25.6 | 2.8 |
| COCc1ccc(N2CCC[C@@H]2c2csc(NC(=O)c3cccn3Cc3ccncc3)n2)cc1 [Compound A48, (R)-N-(4-(1-(4-(methoxymethyl)phenyl)pyrrolidin-2-yl)thiazol-2-yl)-1-(pyridin-4-ylmethyl)-1H-pyrrole-2-carboxamide] |  |  |  | 6.83 | 2.91 | 1.44 | 4.71 |  | < 4.60 | 0.64 | 7.76 | 7.00 | 8.21 | 7.87 |  |  | 16.4 | 2.2 |
| O=C(Nc1nc([C@H]2CCCN2c2ccc(C3CCCNC3)cc2)cs1)c1cccn1Cc1ccncc1 (stereo partly drawn) [Compound A61, N-(4-((2R)-1-(4-(piperidin-3-yl)phenyl)pyrrolidin-2-yl)thiazol-2-yl)-1-(pyridin-4-ylmethyl)-1H-pyrrole-2-carboxamide] |  |  |  | 5.20 | 2.45 | 5.11 | 54.5 |  | 5.26 | 22.8 | 5.80 | 4.93 | 6.04 | 5.49 |  |  | 12.7 | 3.5 |

Source: patent US20230286973A1, “PROTEIN SECRETION INHIBITORS” (KEZAR LIFE SCIENCES, priority 2020, published 2023)
